# Data: publication PMC8634879, “Design, Synthesis, and Biological Evaluation of Pyrano[2,3-c]-pyrazole–Based RalA Inhibitors Against Hepatocellular Carcinoma” (Frontiers in Chemistry, 2021)
# Like-named read-outs stand apart in the source and are kept apart here.
# Legend:
# [1] = molecular target: T1, RalA (Homo sapiens, UniProt P11233); assay: ELISA-based RalA activity assay (RalBP1-coated plates, lysates of compound-treated cells); type: biochemical; conditions: for remaining activity at 1 µM: 1 μM compound, % control = activity remained; for IC50: enzymatic inhibition, average of at least three independent replicates ± SD, read-out: Kinase activities (IC50, μM) RalA
# T1 construct: expressed in transfected cells; host or cells: HepG2 (from b6; the methods paragraph names no cell line)
# T1 sequence (P11233 1-203 limits assumed): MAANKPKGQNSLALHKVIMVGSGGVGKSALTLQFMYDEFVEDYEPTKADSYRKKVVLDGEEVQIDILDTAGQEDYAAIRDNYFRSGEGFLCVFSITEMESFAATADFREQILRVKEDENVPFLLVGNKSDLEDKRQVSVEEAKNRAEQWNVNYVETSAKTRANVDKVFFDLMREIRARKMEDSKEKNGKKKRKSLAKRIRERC
# Description: (§1) The in vitro RalA/B bioactivity assays were performed following methods outlined in previous reports. ([Yan et al., 2016]; [Zhang et al., 2018]; [Walsh et al., 2019]; [Bum-Erdene et al., 2020]). In brief, the lysates of the test compound or vehicle-treated cells were cleared using cold centrifugation, and supernatants were collected. An RalBP1 solution was added to 96-well plates and incubated for 1–2 h, and then the plates were washed thrice using ELISA buffer. Next, cellular lysates were added, and samples were incubated overnight at 4°C. Then, ice-cold mouse anti-FLAG antibody was added, and samples were incubated for one more hour. After subsequent washing with ELISA buffer thrice, the HRP-conjugated anti-mouse antibody was added, and samples were incubated for another hour. Then, the HRP substrate was added. Antigen–antibody reactions were quenched by the addition of sulfuric acid (2 mol/L). Remaining RalA/B was detected by the OD450 values which were collected by using a plate reader. Cell proliferation assays, colony formation assays, apoptosis assays, GST pulldown, and Western blotting were used following methods outlined in our previous reports. ([Zhou et al., 2015]; [Zhang et al., 2016]; [Yang et al., 2017]; [He et al., 2019]). Autophagy levels and protein immunoblotting were used following the methods mentioned in our previous reports ([Pan et al., 2018]; [Wang et al., 2018]; [Hao et al., 2019]; [Wang et al., 2019]; [Peng et al., 2020]). Detailed experimental procedures are described in supporting materials.
# [2] = molecular target: T2, RalB (Homo sapiens, UniProt P11234); assay: ELISA-based RalB activity assay (RalBP1-coated plates, lysates of compound-treated cells); type: biochemical; conditions: for remaining activity at 1 µM: 1 μM compound, % control = active (RalBP1-bound) RalB remaining; for IC50: enzymatic inhibition, average of at least three independent replicates ± SD, read-out: Kinase activities (IC50, μM) RalB
# T2 construct: expressed in transfected cells; host or cells: HepG2 (from b6; the methods paragraph names no cell line)
# T2 sequence (P11234 1-203 limits assumed): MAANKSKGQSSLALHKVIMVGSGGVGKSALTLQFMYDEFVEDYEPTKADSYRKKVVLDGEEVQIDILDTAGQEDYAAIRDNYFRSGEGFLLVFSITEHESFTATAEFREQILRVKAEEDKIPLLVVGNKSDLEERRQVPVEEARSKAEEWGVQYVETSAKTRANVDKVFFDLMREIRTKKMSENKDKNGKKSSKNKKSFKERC
# Description: as §1
# [3] = tested on: HepG2 cells; assay: Cell proliferation assay (MTT), HepG2; type: cell-based; conditions: Homo sapiens
# Description: (§2) The antibodies recognizing LC3, p62/SQSTM1, RalA, RalB, and GAPDH were purchased from Proteintech (Wuhan, China). HCC cell lines, including HepG2, Hep3B, Huh-7, and SMMC-7721, were obtained from the Chinese Center for Type Culture Collection (Wuhan, China) and cultured in DMEM (Dulbecco’s modified Eagle’s medium) with 10% FBS (fetal bovine serum) and streptomycin. Cytotoxicity assays were performed by using the MTT method as previously described.
# as §1
# [4] = tested on: Huh-7 cells; assay: Cell proliferation assay (MTT), Huh-7; type: cell-based; conditions: Homo sapiens
# Description: as §2, §1
# [5] = tested on: Hep3B cells; assay: Cell proliferation assay (MTT), Hep3B; type: cell-based; conditions: Homo sapiens, average of at least three independent replicates ± SD, read-out: Anti-proliferative activities (IC50, μM) Hep3B
# Description: as §2, §1
# [6] = tested on: SMMC-7721 cells; assay: Cell proliferation assay (MTT), SMMC-7721; type: cell-based; conditions: Homo sapiens, average of at least three independent replicates ± SD, read-out: Anti-proliferative activities (IC50, μM) SMMC-7721
# Description: as §2, §1
# [7] = HepG2, Table 1, cell proliferation inhibition, read-out: IC50 (μM) HepG2
# [8] = Table 1, cell proliferation inhibition, read-out: IC50 (μM) Huh7
# [9] = HepG2, Table 2, average of at least three independent replicates ± SD, read-out: Anti-proliferative activities (IC50, μM) HepG2
# [10] = Table 2, average of at least three independent replicates ± SD, read-out: Anti-proliferative activities (IC50, μM) Huh-7
Compound,melting point [°C],remaining activity at 1 µM [1] [%],remaining activity at 1 µM [2] [%],"IC50 [3, 7] [µM]","IC50 [4, 8] [µM]",IC50 [5] [µM],IC50 [1] [µM],IC50 [6] [µM],IC50 [2] [µM],"IC50 [3, 9] [µM]","IC50 [4, 10] [µM]"
"Cc1ccc(S(=O)(=O)NC2=C(C#N)C(c3ccco3)c3c(C)nn(-c4ccccc4)c3O2)cc1 (stereo not shown) [4j, N-(5-cyano-4-(furan-2-yl)-3-methyl-1-phenyl-1,4-dihydropyrano[2,3-c]-pyrazol-6-yl)-4-methylbenzenesulfonamide]",153.8 to 154.3,57,70,9.57 ± 1.05,9.94 ± 1.23,–,–,–,–,–,–
"Cc1ccc(S(=O)(=O)NC2=C(C#N)C(c3cccnc3)c3c(C)nn(-c4ccccc4)c3O2)cc1 (stereo not shown) [4k, N-(5-cyano-3-methyl-1-phenyl-4-(pyridin-3-yl)-1,4-dihydropyrano[2,3-c]-pyrazol-6-yl)-4-methylbenzenesulfonamide]",–,32,38,5.63 ± 0.58,6.01 ± 0.57,> 10,0.75 ± 0.09,> 10,1.09 ± 0.13,5.63 ± 0.58,6.01 ± 0.57
"Cc1ccc(S(=O)(=O)NC2=C(C#N)C(c3ccncc3)c3c(C)nn(-c4ccccc4)c3O2)cc1 (stereo not shown) [4l, N-(5-cyano-3-methyl-1-phenyl-4-(pyridin-4-yl)-1,4-dihydropyrano[2,3-c]-pyrazol-6-yl)-4-methylbenzenesulfonamide]",100.5 to 101.1,40,52,9.2 ± 0.89,9.15 ± 1.04,4.39 ± 0.57,1.24 ± 0.15,5.94 ± 0.77,2.64 ± 0.3,6.01,9.15 ± 1.04
"Cc1ccc(S(=O)(=O)NC2=C(C#N)C(c3ccsc3)c3c(C)nn(-c4ccccc4)c3O2)cc1 (stereo not shown) [4m, N-(5-cyano-3-methyl-1-phenyl-4-(thiophen-3-yl)-1,4-dihydropyrano[2,3-c]-pyrazol-6-yl)-4-methylbenzenesulfonamide]",67.8 to 68.4,45,58,7.2 ± 0.65,> 10,9.84 ± 1.37,1.7 ± 0.22,9.6 ± 1.05,3.86 ± 0.39,9.15,> 10
"Cc1ccc(S(=O)(=O)NC2=C(C#N)C(c3ccc(C(F)(F)F)cc3)c3c(C)nn(-c4ccccc4)c3O2)cc1 (stereo not shown) [4n, N-(5-cyano-3-methyl-1-phenyl-4-(4-(trifluoromethyl)phenyl)-1,4-dihydropyrano[2,3-c]-pyrazol-6-yl)-4-methylbenzenesulfonamide]",109.3 to 110.2,46,59,8.46 ± 0.92,9.58 ± 0.92,> 10,1.81 ± 0.19,> 10,4.11 ± 0.45,8.46 ± 0.92,9.58 ± 0.92
"Cc1nn(-c2ccccc2)c2c1C(c1ccc(C(F)(F)F)cc1)C(C#N)=C(NS(=O)(=O)c1cccs1)O2 (stereo not shown) [4o, N-(5-cyano-3-methyl-1-phenyl-4-(4-(trifluoromethyl)phenyl)-1,4-dihydropyrano[2,3-c]-pyrazol-6-yl)thiophene-2-sulfonamide]",55.9 to 56.7,36,47,5.32 ± 0.61,> 10,7.69 ± 0.84,0.96 ± 0.12,> 10,1.93 ± 0.26,5.32 ± 0.61,> 10
"Cc1nn(-c2ccccc2)c2c1C(c1ccc(C(F)(F)F)cc1)C(C#N)=C(NS(=O)(=O)c1ccc(C(F)(F)F)cc1)O2 (stereo not shown) [4q, N-(5-cyano-3-methyl-1-phenyl-4-(4-(trifluoromethyl)phenyl)-1,4-dihydropyrano[2,3-c]-pyrazol-6-yl)-4-(trifluoromethyl)-benzenesulfonamide]",153.7 to 154.1,37,39,8.65 ± 0.97,8.42 ± 0.94,7.76 ± 1,1.02 ± 0.09,> 10,1.16 ± 0.19,8.65 ± 0.97,8.42 ± 0.94
"Cc1nn(-c2ccccc2)c2c1C(c1ccc(C(F)(F)F)cc1)C(C#N)=C(NS(=O)(=O)c1ccc(F)cc1F)O2 (stereo not shown) [4r, N-(5-cyano-3-methyl-1-phenyl-4-(4-(trifluoromethyl)phenyl)-1,4-dihydropyrano[2,3-c]-pyrazol-6-yl)-2,4-difluorobenzenesulfonamide]",65.8 to 66.5,30,43,7.56 ± 0.92,7.39 ± 0.85,8.3 ± 0.66,0.66 ± 0.08,> 10,1.49 ± 0.22,7.56 ± 0.92,7.39 ± 0.85
"Cc1ccc(S(=O)(=O)NC2=C(C#N)C(c3ccco3)c3c(C)nn(-c4ccccc4Cl)c3O2)cc1 (stereo not shown) [4s, N-(1-(2-chlorophenyl)-5-cyano-4-(furan-2-yl)-3-methyl-1,4-dihydropyrano[2,3-c]-pyrazol-6-yl)-4-methylbenzenesulfonamide]",62.5 to 63.9,48,72,9.89 ± 0.81,> 10,–,–,–,–,–,–
"Cc1ccc(S(=O)(=O)NC2=C(C#N)C(c3ccncc3)c3c(C)nn(-c4ccccc4Cl)c3O2)cc1 (stereo not shown) [4u, N-(1-(2-chlorophenyl)-5-cyano-3-methyl-4-(pyridin-4-yl)-1,4-dihydropyrano[2,3-c]-pyrazol-6-yl)-4-methylbenzenesulfonamide]",79 to 80,44,50,8.71 ± 0.74,> 10,–,–,–,–,–,–
"Cc1ccc(S(=O)(=O)NC2=C(C#N)C(c3ccsc3)c3c(C)nn(-c4ccccc4Cl)c3O2)cc1 (stereo not shown) [4v, N-(1-(2-chlorophenyl)-5-cyano-3-methyl-4-(thiophen-3-yl)-1,4-dihydropyrano[2,3-c]-pyrazol-6-yl)-4-methylbenzenesulfonamide]",67.4 to 68.8,56,78,> 10,> 10,–,–,–,–,–,–
"COc1cccc(C2C(C#N)=C(NS(=O)(=O)c3ccc(C)cc3)Oc3c2c(C)nn3-c2ccccc2Cl)c1 (stereo not shown) [4w, N-(1-(2-chlorophenyl)-5-cyano-4-(3-methoxyphenyl)-3-methyl-1,4-dihydropyrano[2,3-c]-pyrazol-6-yl)-4-methylbenzenesulfonamide]",66.4 to 67.7,51,69,8.87 ± 0.95,> 10,–,–,–,–,–,–
"COc1cccc(C2C(C#N)=C(NS(=O)(=O)c3ccccc3)Oc3c2c(C)nn3-c2ccccc2Cl)c1 (stereo not shown) [4x, N-(1-(2-chlorophenyl)-5-cyano-4-(3-methoxyphenyl)-3-methyl-1,4-dihydropyrano[2,3-c]-pyrazol-6-yl)benzenesulfonamide]",66 to 67.5,59,58,> 10,8.93 ± 1.02,–,–,–,–,–,–
